In paper PMC3140712 (2011):
Where a name gives a salt, the structure may show the parent alone.

Biological target: P2Y1 receptor (Homo sapiens, UniProt P47900)
Assay: intracellular calcium mobilization
Format: cell-based

P2Y1 receptor, sequence (P47900 whole entry): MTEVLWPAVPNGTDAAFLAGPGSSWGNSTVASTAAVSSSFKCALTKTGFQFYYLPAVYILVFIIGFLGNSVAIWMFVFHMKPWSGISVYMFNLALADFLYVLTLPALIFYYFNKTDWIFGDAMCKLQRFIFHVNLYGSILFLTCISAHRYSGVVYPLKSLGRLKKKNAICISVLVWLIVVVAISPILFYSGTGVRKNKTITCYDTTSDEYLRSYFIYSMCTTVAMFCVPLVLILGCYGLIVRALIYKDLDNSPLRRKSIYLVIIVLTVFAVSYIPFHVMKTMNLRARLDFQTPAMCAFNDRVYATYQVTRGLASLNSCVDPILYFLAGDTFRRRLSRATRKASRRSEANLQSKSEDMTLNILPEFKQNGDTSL

CSc1nc(N)c2ncn([C@H]3[C@H](O)[C@H](O)[C@]4(COP(=O)(O)OP(=O)(O)O)C[C@H]34)c2n1 [MRS2365, [[(1R,2R,3S,4R,5S)-4-[6-amino-2-(methylthio)-9H-purin-9-yl]-2,3-dihydroxybicyclo[3.1.0]hex-1-yl]methyl] diphosphoric acid mono ester trisodium salt]
EC50: 5.28 ± 1.96 nM
